Experimental data published in US8530665B2 (Eli Lilly and Company, priority 2010, dated 2013).

What was measured:
[1] = test system: FGF receptor 1 (bFGF induced ERK phosphorylation in HUVEC); assay: AlphaScreen SureFire Detection of ERK phosphorylation (Thr202/Tyr204) in HUVEC; settings: Homo sapiens, read-out: IC50 b-FGF induced ERK phosphorylation (Thr202/Tyr204)
Description: AlphaScreen SureFire Detection of ERK Phosphorylation (Thr202/Tyr204) in Human Umbilical Vein Endothelial Cells (HUVEC)
The effect of compound on the inhibition of FGF receptor 1 is measured by monitoring the phosphorylation of ERK (pERK) in response to basic-Fibroblast growth factor (b-FGF) stimulation in Human Umbilical Endothelial cells (HUVEC). […] This is a homogeneous assay format utilizing the immuno-sandwich capture of the phosphorylated analyte followed by detection using antibody-coated ALPHASCREEN® beads (Perkin Elmer) to generate an amplified signal.
For the assay, cells are harvested by standard procedures and then counted. […] Plates are incubated overnight at 37° C., 5% CO2.
On the day of the assay, cells are serum starved in 100 μL EBM (endothelial cell basal) medium containing 1.5% FBS and 20 mg/mL BSA for 3 hours at 37° C., 5% CO2, then treated with 20 μM of 3× serially diluted compound in starvation medium for 1 hour at 37° C. This yielded a 10 point concentration-response curve ranging from 10-0.005 μM in 1% DMSO. After 1 hour compound treatment, cells are stimulated with 50 μL b-FGF (Sigma, F0291, final b-FGF concentration 50 ng/mL) at 37° C. for 15 minutes. In the wells containing cells and 50 μL stimulator b-FGF yields MAX signal, and cells with 10 μM positive control compound and 50 μL stimulator b-FGF as MIN. […]

[2] = test system: FGF9 induced ERK phosphorylation in Human RT112 bladder carcinoma cells; assay: FGF9 induced p-ERK with BSA in RT112 cells; settings: RT-112, read-out: IC50 FGF9 induced p-ERK
Description: FGF9 Induced p-ERK with BSA
This yielded a 10 point dose-response curve ranging from 10-0.005 μM in 1% DMSO. The incubation is continued for 1 hour at 37° C. […] Cells are fixed by the addition of 30 μL of a 25% formaldehyde solution in phosphate buffered saline (PBS) (3.7% formaldehyde final concentration), and incubated 30 minutes at RT. Cells are washed 3× with PBS, followed by the addition of 100 μL of cold methanol and incubated for 30 minutes at −20° C. The methanol is removed and the cells are treated with PBS containing 0.1% TRITON® X-100(PBST), washed 3× with PBS, and incubated 15 minutes at RT.

C[C@@H](Oc1ccc2[nH]nc(/C=C/c3cnn(CCO)c3)c2c1)c1c(Cl)cncc1Cl [Preparation 10, (R)-(E)-2-(4-(2-(5-(1-(3,5-Dichloropyridin-4-yl)ethoxy)-1H-indazol-3-yl)vinyl)-1H-pyrazol-1-yl)ethanol]
IC50 [1]: 0.6 nM
IC50 [2]: 0.4 nM
